In this experiment the target is T1, Human CYP2C8 (Homo sapiens, UniProt P10632).
T1 construct: purchased Cypex; host or cells: E. coli
T1 sequence (P10632 1-490): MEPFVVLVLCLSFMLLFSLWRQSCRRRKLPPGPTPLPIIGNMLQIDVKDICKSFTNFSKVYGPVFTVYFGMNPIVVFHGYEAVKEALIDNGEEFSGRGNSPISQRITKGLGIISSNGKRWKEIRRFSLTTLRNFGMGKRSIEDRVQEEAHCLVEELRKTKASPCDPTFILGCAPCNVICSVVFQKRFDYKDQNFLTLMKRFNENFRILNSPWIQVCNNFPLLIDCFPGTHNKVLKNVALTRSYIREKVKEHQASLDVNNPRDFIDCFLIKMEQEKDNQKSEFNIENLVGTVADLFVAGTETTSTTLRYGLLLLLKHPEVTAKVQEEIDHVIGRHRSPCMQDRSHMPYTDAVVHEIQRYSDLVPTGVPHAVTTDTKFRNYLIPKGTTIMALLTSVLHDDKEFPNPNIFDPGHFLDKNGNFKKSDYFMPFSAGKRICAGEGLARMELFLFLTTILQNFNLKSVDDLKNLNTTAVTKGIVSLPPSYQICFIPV
The experiment is described as follows: Inhibitory activity of drug-metabolizing enzyme (human CYP2C8 inhibition effect). The experiment is classed as in vitro ADME. Particulars: E. coli-expressed CYP2C8, Luciferin-ME substrate, 37° C. 30 min, from inhibition at 1 and 10 μmol/L. On the procedure: The reaction was carried out in a 384-well plate. As the positive control substance (CYP2C8: quercetin), a solution, which had been adjusted with DMSO to have 300 times higher concentration than the final concentration (CYP2C8: 22.5 and 225 μmol/L) and been 75-fold diluted with purified water containing 2.7% acetonitrile, was prepared (CYP2C8: 0.3 and 3 μmol/L). […] Thereafter, 16 μL of luciferase solution was added to stop the reaction and to allow luciferin to emit light, and the luminescence intensity of the reaction solution was measured. The inhibition rate is a reduction rate (inhibition rate) of the luminescence intensity when compared with the control in which the reaction was carried out by the addition of DMSO in place of the test compound solution. The inhibition rate was calculated from the following mathematical formula. Inhibition rate (%)=100−{(luminescence intensity of test compound−background luminescence intensity)/(luminescence intensity of control−background luminescence intensity)×100} [Math. […]
The IC50 value of the compound of the present invention was measured using the measurement method described above.

For the compound `COc1cc2nccc(Oc3ccc(NC(=O)c4cc(C(C)=O)cn(-c5ccccc5)c4=O)nc3)c2cc1OC` [Example 21, 5-acetyl-N-{5-[(6,7-dimethoxy-4-quinolinyl)oxy]-2-pyridinyl}-2-oxo-1-phenyl-1,2-dihydro-3-pyridinecarboxamide], the IC50 – broadly, the concentration that inhibits the measured activity by half – was more than 10 µM.

For `COc1cc2nccc(Oc3ccc(NC(=O)c4c5c(cn(-c6ccccc6)c4=O)C(=O)CCC5)nc3)c2cc1OC` [Example 42, N-{5-[(6,7-dimethoxy-4-quinolinyl)oxy]-2-pyridinyl}-3,8-dioxo-2-phenyl-2,3,5,6,7,8-hexahydro-4-isoquinolinecarboxamide], the IC50 was more than 10 µM.

The values above are taken from US10208034B2, “Quinoline derivative” (ONO PHARMACEUTICAL CO., LTD., priority 2014, dated 2019).
